Results taken from patent publication US8865901B2, “Gain-of-function Bcl-2 inhibitors” (priority 2009, dated 2014).
pEC50: −log10 of the molar value. Read-outs that look alike come from different tables or passages of the source.

Assays:
[1] = tested on: TAMH cells overexpressing Bcl-xL (TAMH-Bcl-xL, Tabx2s); assay: Cytotoxicity / apoptosis induction in TAMH cells overexpressing Bcl-xL; assay type: cell-based; conditions: for Neo:Bcl: ratio Neo to Bcl-xL cells
Description: (§1) To examine the sensitivity of cells over-expressing Bcl-xL to various mitochondrial inhibitors and apoptosis inducers, cell lines over-expressing Bcl-xL were prepared and tested according to Hockenberry et al. U.S. Pat. No. 7,241,804, hereby incorporated by reference in its entirety. Competitive binding of compounds with fluorescent antimycin A3, and competitive binding of compounds with BH3 peptide and Bcl-2. Competitive binding of compounds with BH-3 peptide were also measured using Bcl-xL as previously described. Id.
(§2) Cell lines were grown in RPMI 1640 medium (Gibco, Grand Island, N.Y.) supplemented with 5% fetal bovine serum (Hyclone, Logan, Utah). Also shown is the ratio of TAMH cells expressing Bcl-xL to those expressing A142L (WT:142L). The assay measures the potency of various compounds with respect to inducing apoptosis in these cells.
(§3) The compounds described in Example 2 were tested for their ability to inhibit Bcl-2 gain-of-function in TAMH cells, TAMH cells overexpressing […] (TAMH-Bcl-xL), TAMH cells transfected with Neo vector (Neo), TAMH cells over expressing a variant of Bcl-xL (A142L) using the methods of Example 1. 3-6.
(§4) The effects of the compounds described in Example 8 on TAMH cells, TAMH cells overexpressing Bcl-xL (TAMH-Bcl-xL), TAMH cells transfected with Neo vector (Neo), TAMH cells over expressing a variant of Bcl-xL (A142L) is shown in Table 8
(§5) The effects of the compounds described in Example 10 on TAMH cells, TAMH cells overexpressing Bcl-xL (TAMH-Bcl-xL), TAMH cells transfected with Neo vector (Neo), TAMH cells over expressing a variant of Bcl-xL (A142L) is shown in the following Table 10

[2] = tested on: TAMH cells transfected with Neo vector (Neo); assay: Cytotoxicity / apoptosis induction in TAMH cells transfected with Neo vector; assay type: cell-based; conditions: TAMH Neo cells
Description: as §1, §2, §3, §4, §5

[3] = tested on: TAMH cells over expressing a variant of Bcl-xL (A142L); assay: Cytotoxicity / apoptosis induction in TAMH cells over expressing Bcl-xL variant A142L; assay type: cell-based; conditions: Table 4; for pEC50: TAMH A142L cells; for WT:142L: ratio of TAMH cells expressing Bcl-xL to those expressing A142L
Description: as §1, §2, §3

[4] = tested on: OVCAR-3, an ovarian tumor; assay: Apoptosis induction against solid tumors in vitro, OVCAR-3; assay type: cell-based
Description: (§6) The ability of compounds from Example 2 to induce apoptosis against solid tumors in vitro was tested. Four solid tumors were tested: OVCAR-3, an ovarian tumor; COLO205, a colonic tumor; HOP-62 and H23, both NSCLC tumors. The experimental compounds were compared to 2MeAA and to ABT-737, a clinical stage compound owned by Abbott Pharma.
(§7) The ability of compounds of Example 8 to induce apoptosis against solid tumors in vitro was tested. Four solid tumors were tested: OVCAR-3, an ovarian tumor; COLO205, a colonic tumor; HOP-62 and H23, both NSCLC tumors. The experimental compounds, […]

[5] = tested on: COLO205, a colonic tumor; assay: Apoptosis induction against solid tumors in vitro, COLO205; assay type: cell-based
Description: as §6, §7

[6] = tested on: HOP-62, NSCLC tumor; assay: Apoptosis induction against solid tumors in vitro, HOP-62; assay type: cell-based
Description: as §6, §7

[7] = tested on: H23, NSCLC tumor; assay: Apoptosis induction against solid tumors in vitro, H23; assay type: cell-based
Description: as §6, §7

[8] = Log P
[9] = Table 4, TAMH-Bcl-xL cells, read-out: Bcl-xL
[10] = Table 5, TAMH cells overexpressing Bcl-xL (Tabx2s), read-out: 2S EC50
[11] = Table 3, TAMH cells overexpressing Bcl-xL (Tabx2s), read-out: 2S EC50

## 2-methoxy antimycin A [Compound 2-MeAA, reference compound]
[1]; [9]
  pEC50: 5.60
[1]; Table 4
  Neo:Bcl: 6.9
[2]; Table 4, read-out: Neo
  pEC50: 4.81
[3]
  pEC50: 4.99
  WT:142L: 4.1
[4]; Table 7
  pEC50: 5.46
[4]; Table 21
  pEC50: 5.46
[5]; Table 7
  pEC50: 5.74
[5]; Table 21
  pEC50: 5.74
[6]; Table 7
  pEC50: 5.41
[6]; Table 21
  pEC50: 5.41
[7]; Table 7
  pEC50: 5.57
[7]; Table 21
  pEC50: 5.57

## CN(C)CC[C@H](CSc1ccccc1)Nc1ccc(S(=O)(=O)NC(=O)c2ccc(N3CCN(Cc4ccccc4-c4ccc(Cl)cc4)CC3)cc2)cc1[N+](=O)[O-] [ABT-737, reference compound]
[4]; Homo sapiens, Table 7
  pEC50: 4.77
[5]; Homo sapiens, COLO 205, Table 7
  pEC50: < 4.60
[5]; Table 21
  pEC50: < 4.60
[6]; Homo sapiens, Table 7
  pEC50: < 4.60
[6]; Table 21
  pEC50: < 4.60
[7]; Homo sapiens, NCI-H23, Table 7
  pEC50: < 4.60
[7]; Table 21
  pEC50: < 4.60

## Cc1cccc(Cc2ccc(Cc3cccc(C)c3)c(O)c2)c1 [Compound 0051]
[1]; [10]
  pEC50: 5.82
[2]; Table 5, read-out: Neo EC50
  pEC50: 4.81
[8]; Table 5
  Log P: 6.18

## COc1ccc(Cl)cc1Cc1cc(Cl)cc(Cc2cc(Cl)ccc2O)c1OC [Compound 0088]
[1]; [10]
  pEC50: 6.22
[2]; Table 5, read-out: Neo EC50
  pEC50: 5.21
[8]; Table 5
  Log P: 7.4

## CC(=O)Oc1ccc(C)cc1Cc1cc(C)cc(Cc2cc(C)ccc2OC(C)=O)c1OC(C)=O [Compound 0098]
[1]; [10]
  pEC50: 5.80
[2]; Table 5, read-out: Neo EC50
  pEC50: 4.98
[8]; Table 5
  Log P: 7.45

## Cc1ccc(OC(=O)C(C)C)c(Cc2cc(C)cc(Cc3cc(C)ccc3OC(=O)C(C)C)c2O)c1 [Compound 0127]
[1]; [10]
  pEC50: 5.49
[8]; Table 5
  Log P: 8.31

## CC(C)(C)c1ccc(Cc2ccc(Cl)cc2Cl)cc1 [Compound 0149]
[1]; Mus musculus, Table 6, TAMH cells overexpressing Bcl-xL (Tabx2s), read-out: 2S EC50
  pEC50: 5.96
[2]; Mus musculus, Table 6, read-out: Neo EC50
  pEC50: 5.04
[8]
  logP: 6.28

## CC(C)(C)c1ccc(Cc2ccc(Oc3ccccc3)cc2O)cc1 [Compound 0155]
[1]; [10]
  pEC50: 5.72
[2]; Table 5, read-out: Neo EC50
  pEC50: 4.92
[8]; Table 5
  Log P: 7.24

## O=[N+]([O-])c1cccc(/C=N/Nc2ccccn2)c1O [Compound 0208]
[1]; [9]
  pEC50: 5.36
[1]; Table 4
  Neo:Bcl: 5.7
[2]; Table 4, read-out: Neo
  pEC50: < 4.60
[3]
  pEC50: 5.01
  WT:142L: 2.2
[4]; Table 7
  pEC50: 5.42
[5]; Table 7
  pEC50: 5.04
[6]; Table 7
  pEC50: 4.76
[7]; Table 7
  pEC50: 5.09

## Oc1ccc(Cl)cc1/C=N/Nc1ccccn1 [Compound 0229]
[1]; [11]
  pEC50: 5.62
[2]; Table 3, read-out: Neo EC50
  pEC50: ≤ 4.30
[8]; Table 3
  Log P: 2.570

## Oc1ccc(Cl)cc1/C=N/Nc1ccc(C(F)(F)F)cn1 [Compound 0231]
[1]; [11]
  pEC50: 5.68
[2]; Table 3, read-out: Neo EC50
  pEC50: ≤ 4.30
[8]; Table 3
  Log P: 3.560

## Oc1c(Cl)cc(Cl)cc1/C=N/Nc1ccccn1 [Compound 0233]
[1]; [11]
  pEC50: 5.46
[2]; Table 3, read-out: Neo EC50
  pEC50: ≤ 4.30
[8]; Table 3
  Log P: 3.190

## Oc1ccc(Br)cc1/C=N/Nc1ccccn1 [Compound 0241]
[1]; [11]
  pEC50: 6.70
[2]; Table 3, read-out: Neo EC50
  pEC50: ≤ 4.30
[8]; Table 3
  Log P: 2.740

## Oc1c(Br)cc(Br)cc1/C=N/Nc1ccccn1 [Compound 0245]
[1]; [11]
  pEC50: 5.48
[2]; Table 3, read-out: Neo EC50
  pEC50: ≤ 4.30
[8]; Table 3
  Log P: 3.540

## Oc1c(Br)cc(Cl)cc1/C=N/Nc1ccc(C(F)(F)F)cn1 [Compound 0275]
[1]; [11]
  pEC50: 5.85
[2]; Table 3, read-out: Neo EC50
  pEC50: 5.00
[8]; Table 3
  Log P: 4.980

## COc1cc(Br)c(O)c(/C=N/NC(=O)c2ccccc2)c1 [Compound 0283]
[1]; [11]
  pEC50: 5.60
[1]; [9]
  pEC50: 5.46
[1]; Table 4
  Neo:Bcl: 7.1
[2]; Table 3, read-out: Neo EC50
  pEC50: ≤ 4.30
[2]; Table 4, read-out: Neo
  pEC50: < 4.60
[3]
  pEC50: < 4.60
  WT:142L: 7.1
[8]; Table 3
  Log P: 3.730
